Measured values published in patent US9573901B2, “Crystal form of chidamide, preparation method and use thereof” (SHENZHEN CHIPSCREEN BIOSCIENCES, LTD., priority 2012, dated 2017).

Experiments:
[1] = Stability test at high temperature, high humidity and strong light exposure; assay type: physicochemical; details: high temperature (60° C.), high humidity (90%±5%) and strong light exposure (4500 Lx±500 Lx)
Protocol: The stability of the chidamide crystal form A and the chidamide crystal form B described herein was tested at high temperature (60° C.), high humidity (90%±5%) and strong light exposure (4500 Lx±500 Lx). […] Both the chidamide crystal form A and the chidamide crystal form B are suitable for the manufacturing of drug products and long-term storage. The chidamide crystal form A and the chidamide crystal form B described herein have excellent performance in terms of oral absorption and inhibition of cell differentiation and proliferation. Additionally, both crystal forms have low toxicity and favorable storage and treatment stability, and can be used in the preparation of a medicament for treating cell differentiation and proliferation-related diseases. Thus, the present invention provides the use of the chidamide crystal form A and the chidamide crystal form B in the preparation of a medicament for treating cell differentiation and proliferation-related diseases.

[2] = Solubility; assay type: physicochemical

content and total impurity amount after stability test [1]: no significant change
crystal form after stability test [1]: keep the original crystal form
Compound: Nc1cc(F)ccc1NC(=O)c1ccc(CNC(=O)/C=C/c2cccnc2)cc1 [chidamide crystal form A, N-(2-amino-4-fluorophenyl)-4-(N-(3-pyridylacryloyl)aminomethyl)benzamide]
solubility [2]: favorable performance in terms of solubility
